The text below walks through data of ChEMBL document CHEMBL1201862, “PubChem BioAssay data set” (2004).

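The compound was tested at five concentrations on cells cultured in 96-well plates, with a 48-hour exposure period. The concentration for 50% growth inhibition is given as GI50.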 Active and inactive are the calls of the source. Rule as the data show it: active = GI50 up to about 1.1 µM and inactive = higher. Where only a bound is given, the exact number is not on record here.

Common to all, as to assay: growth of human tumour cells (NCI), 48 h
In test [1] the test system is RPMI-8226.
Test [2] concerns OVCAR-8.
Test [3] relates to SF-295.
The subject of test [4] is EKVX.
For test [5], the system named is OVCAR-4.
The subject of test [6] is HCT-15.
Test [7] deals with K562.
Test [8] concerns OVCAR-5.
The subject of test [9] is SK-MEL-5.
In test [10] the test system is HCC 2998.
Test [11] has as its system CCRF-CEM.
Test [12] relates to NCI-H460.
The test system of test [13] is NCI-H23.
In test [14] the test system is KM12.
Test [15] has as its system SN12C.
In test [16] the test system is 786-0.
For test [17], the system named is SK-MEL-2.
In test [18] the test system is TK-10.

Turning to `N#CCCN(c1ccc(-c2nnc(NC(=O)CNNC(=O)CC(=O)Nc3ccccc3)s2)cc1)S(=O)(=O)c1ccccc1`, the GI50 was > 100 µM (inactive) in [1]; > 100 µM (inactive) in test [2]; > 100 µM (inactive) in [3]; > 100 µM (inactive) in test [4]; 53.2 µM (inactive) in test [5]; above 100 µM in test [6]. In addition, the GI50 in test [7] is 49.2 µM (inactive); in test [8], > 100 µM (inactive); in [9], 52.1 µM (inactive); in test [10], > 100 µM (inactive); in test [11] it was 90.8 µM (inactive); in test [12] it was > 100 µM (inactive). Also, the GI50 in [13] is 76.6 µM (inactive); in test [14], > 100 µM (inactive); in [15], > 100 µM (inactive); in test [16], > 100 µM (inactive); in [17] it was > 100 µM (inactive); in test [18] it was > 100 µM (inactive).
On to `CC(=O)/C(=N\O)C(=O)NCCc1ccccc1`, for which the GI50 is 57.7 µM (inactive) in [1]; > 100 µM (inactive) in [2]; > 100 µM (inactive) in test [3]; > 100 µM (inactive) in test [4]; > 100 µM (inactive) in test [5]; 41.1 µM in [6]. Also, the GI50 in test [7] was 68.7 µM (inactive); in test [8] it was > 100 µM (inactive); in test [9], > 100 µM (inactive); in test [10], 66.5 µM (inactive); in test [11], 76.4 µM (inactive); in [12] it was 41.6 µM (inactive). For the same molecule, the GI50 in test [13] is > 100 µM (inactive); in [14], 58.3 µM (inactive); in test [15], > 100 µM (inactive); in test [16] it was 68.2 µM (inactive); in [17], > 100 µM (inactive); in test [18], 45.1 µM (inactive).
With `C[N+](C)(Cc1ccc(NC(=O)CCCC(=O)ON2C(=O)CCC2=O)cc1)c1ccccc1`, the GI50 in test [1] was < 0.01 µM (active); in [2] it was < 0.01 µM (active); in test [3], < 0.01 µM (active); in test [4] it was < 0.01 µM (active); in [5], < 0.01 µM (active); in [6] it was above 1 µM. The GI50 in [7] was < 0.01 µM (active); in test [8] it was < 0.01 µM (active); in [9], < 0.01 µM (active); in test [10], < 0.01 µM (active); in test [11], < 0.01 µM (active); in test [12], > 1 µM (active). The GI50 in [13] is < 0.01 µM (active); in test [14], < 0.01 µM (active); in test [15], < 0.01 µM (active); in [16], < 0.01 µM (active); in test [17], 0.0234 µM (active); in test [18], < 0.01 µM (active).
Take `CC(C)(CN1C(=O)C(Cl)=C(Cl)C1=O)CN1C(=O)C(Cl)=C(Cl)C1=O`: the GI50 in test [1] is 1.71 µM (inactive); in [2], 6.34 µM (inactive); in test [3] it was 24.3 µM (inactive); in [4] it was 19.9 µM (inactive); in test [5], 21.7 µM (inactive); in test [6], 8.63 µM. For the same molecule, the GI50 was 1.64 µM (inactive) in test [7]; 19.8 µM (inactive) in [8]; 22.1 µM (inactive) in test [9]; 12 µM (inactive) in test [10]; 0.264 µM (active) in test [11]; 35 µM (inactive) in [12]. Further, the GI50 in [13] is 11.7 µM (inactive); in test [14], 24.2 µM (inactive); in test [15], 11.7 µM (inactive); in test [16], 11.7 µM (inactive); in [17], 18.8 µM (inactive); in test [18], 9.02 µM (inactive).
Turning to `Cc1cc(Br)cc(C)c1NC(=O)C(=O)C(C(=O)c1ccc2ccccc2c1)C1OC(=O)c2ccccc21` (stereo unspecified), the GI50 in test [1] was 5.94 µM (inactive); in [2] it was 7.18 µM (inactive); in [3], 4.59 µM (inactive); in test [4], 19.5 µM (inactive); in test [5], 5.14 µM (inactive); in [6], 17.3 µM. Besides, the GI50 in test [7] was 5.93 µM (inactive); in test [8] it was 7.14 µM (inactive); in test [9], 11.2 µM (inactive); in [10] it was 11 µM (inactive); in [11], 3.94 µM (inactive); in test [12] it was 4.66 µM (inactive). Also, the GI50 in [13] is 7.53 µM (inactive); in test [14] it was 15.5 µM (inactive); in [15], 19.7 µM (inactive); in [16] it was 6.03 µM (inactive); in [17] it was 16 µM (inactive); in test [18] it was 21.1 µM (inactive).
`CCN1C(=O)C(N=[N+]=[N-])(c2ccccc2)C(=O)c2ccccc21` (stereo unspecified): the GI50 in [1] was 35.6 µM (inactive); in test [3], 60.3 µM (inactive); in [4], 32.9 µM (inactive); in test [5], 59 µM (inactive); in test [6] it was 59.2 µM; in [7], 39 µM (inactive). For the same molecule, the GI50 in test [8] is > 100 µM (inactive); in test [9], 56.5 µM (inactive); in [10] it was > 100 µM (inactive); in [11], 55.1 µM (inactive); in test [12], 94.8 µM (inactive); in [13] it was 57.1 µM (inactive). Moreover, the GI50 in test [14], in test [15], in test [16], in test [17] and in test [18] was > 100 µM (inactive) throughout.
With `O=C1CC(c2c[nH]c3ccccc23)C(=O)N1c1ccccc1` (stereo unspecified), the GI50 is > 100 µM (inactive) in test [1]; > 100 µM (inactive) in test [2]; > 100 µM (inactive) in test [3]; > 100 µM (inactive) in [4]; > 100 µM (inactive) in test [5]; above 100 µM in [6]. Further, the GI50 in test [7], in test [8], in [9], in [10], in test [11] and in [12] was > 100 µM (inactive) each time. Besides, the GI50 in test [13], in test [14], in [16], in test [17] and in [18] was > 100 µM (inactive) each time.
Take `COc1ccc(CN2C(=O)C(Cc3cc(OC)c(OC)c(C)c3OC)N(C(=O)OC(C)C)C(=O)/C2=C/c2cc(OC)c(OC)c(C)c2OC)cc1` (stereo unspecified): the GI50 in test [1] was 16.4 µM (inactive); in test [2], > 100 µM (inactive); in test [3], > 100 µM (inactive); in test [4], 50.8 µM (inactive); in test [5], > 100 µM (inactive); in test [7], 41 µM (inactive). For the same molecule, the GI50 in [8] was > 100 µM (inactive); in test [9], 46.8 µM (inactive); in test [10] it was > 100 µM (inactive); in test [11], 59.6 µM (inactive); in test [12] it was 18.4 µM (inactive); in test [13] it was > 100 µM (inactive). Besides, the GI50 in test [14] was > 100 µM (inactive); in test [15] it was > 100 µM (inactive); in test [16], > 100 µM (inactive); in test [17], 49.1 µM (inactive); in test [18] it was > 100 µM (inactive).
